The values below come from US7008545B2, “Synergistic biocidal mixtures” (Hercules Incorporated, priority 2002, dated 2006).

Experiment [1] deals with artificial bacterial consortium. Put plainly: Dose protocol, bacterial growth inhibition (O.D. 650 nm) in synthetic white water, concurrent fed strategy. The class given is cell-based. Particulars: for ppm BIT / ppm BNPD / ppm DBDCB / ppm DBNPA / ppm DCOI / ppm DGH / ppm DIDAC / ppm Dithiol / ppm Glut / ppm MBT: alone or with AmBr; for ppm Sulfone: concentration of Sulfone at 50% inhibition. As to the method: A measured amount of ammonium bromide activated with sodium hypochlorite and a measured amount of a non-oxidizing biocide were added to a suspension of bacteria. The effectiveness of the combination of the biocides is determined by measuring growth or lack thereof after an appropriate incubation time.
(§1) The efficacy of the active materials and blends was determined using a dose protocol. The actives were evaluated in synthetic white water with pH values of 5.5 and 8.0. The materials were tested against an artificial bacterial consortium containing approximately equal numbers of six bacterial strains. Although the test strains are representative of organisms present in paper mill systems, the effect is not limited to these bacteria. Two of the strains were Klebsiella pneumonia (ATCC 13883) and Pseudomonas aeruginosa (ATCC 15442). The other four strains were isolated from papermill systems and have been identified as Curtobacterium flaccumfaciens, Burkholderia cepacia, Bacillus maroccanus, and Pseudomonas glathei. Each strain was inoculated at 37° C. overnight, then suspended in sterile saline. Equal volumes of each strain were then combined to prepare the consortium. The bacterial consortium was distributed into the wells of a microtiter plate in the presence and absence of various concentrations of the active materials. The microtiter plates were incubated at 37° C. Optical density (O.D.) readings at 650 nm were taken initially (t0) and after time 4 hours (t4) of incubation.
(§2) The raw data was converted to “bacterial growth inhibition precentages” according to the following formula: % Inhibition=[(a−b)÷a]*100 where: • a=(O.D. of control at tn)−(O.D. of control at t0) • b=(O.D. of treatment at tn)−(O.D. of treatment at t0)
(§3) The inhibition values can be plotted versus dosage for each active and the particular blend. […] In the examples (tables) below, the I50 values are expressed as parts per million (ppm) of active material.
(§4) The synergism index (SI) was calculate by the equations described by F. C. Kull, P. C. Eisman, H. D. Sylwestrowicz, and R. L. Mayer (1961), Applied Microbiology 9, 538–541. The values are based on the amount needed to achieve a specified end point. The end point selected for these studies was 50% inhibition of bacterial growth. Synergy Index (SI)=(QA÷Qa)+(QB÷Qb) where: • QA=quantity of compound A in mixture, producing the end point • Qa=quantity of compound A, acting alone, producing the end point • QB=quantitiy of compound B in mixture, producing the end point • Qb=quantity of compound B, acting alone, producing the end point
(§5) If SI is less than 1, synergism exists; if SI is greater than 1, antagonism exists; if SI is equal to 1, an additive effect exists.

Experiment [2] has the same test system. Put plainly: Dose protocol, bacterial growth inhibition (O.D. 650 nm) in synthetic white water, sequential fed strategy, one hour delay between the additions. Format: cell-based. Particulars: for ppm DBNPA: alone or with AmBr; for ppm MBT: concentration of MBT at 50% inhibition; for ppm Sulfone: concentration of Sulfone at 50% inhibition. On the procedure: A measured amount of ammonium bromide activated with sodium hypochlorite was added to a suspension of bacteria and the cell suspension incubated for a selected time after which a measured amount of a selected non-oxidizing biocide was then added to the suspension. The effectiveness of the combination of biocides was determined by measuring growth or lack thereof after an additional appropriate incubation time.
A measured amount of a selected non-oxidizing biocide was added to a suspension of bacteria and the cell suspension was incubated for a selected time after which a measured amount of ammonium bromide activated with sodium hypochlorite was then added to the suspension. The effectiveness of the combination of biocides was determined by measuring growth or lack thereof after an additional appropriate incubation time.
as §1, §2, §3, §4, §5

Setting [3] is: pH 5.5, amount giving 50% inhibition.
[4] abbreviates: pH 8.0, amount giving 50% inhibition.
Where [5] appears, read: DBNPA & AmBr, pH 5.5, end point 50% inhibition.
[6] abbreviates: DBNPA & AmBr, pH 8.0, end point 50% inhibition.
Setting [7] is: pH 5.5, alone or with AmBr at the stated ratio.
Setting [8] is: pH 8.0, alone or with AmBr at the stated ratio.
[9] abbreviates: Sulfone & AmBr, at 50% inhibition, pH 5.5.
The mark [10] stands for this setting: Sulfone & AmBr, at 50% inhibition, pH 8.0.

In the case of `O=c1[nH]sc2ccccc12` [BIT, 1,2-Benzisothiazolin-3-one], the “Synergy Index” value in experiment [1] (BIT & AmBr, pH 5.5, end point 50% inhibition) was found to be 1.00; in experiment [1] (BIT & AmBr, pH 8.0, end point 50% inhibition), 1.00. Also, the “ppm BIT” value is listed as 1.62 ppm in experiment [1] (setting [3]) and 3.59 ppm in experiment [1] (setting [4]).

In the case of `O=[N+]([O-])C(Br)(CO)CO` [BNPD, 2-Bromo-2-nitropropane-1,3-diol], the “Synergy Index” value in experiment [1] (BNPD & AmBr, pH 5.5, end point 50% inhibition) stood at 1.00; in experiment [1] (BNPD & AmBr, pH 8.0, end point 50% inhibition), 1.00. The “ppm BNPD” value in experiment [1] (setting [3]) amounted to 1.16 ppm; in experiment [1] (setting [4]) it was 1.34 ppm.

As for `N#CCCC(Br)(C#N)CBr` (centres unmarked) [DBDCB, 1,2-Dibromo-2,4-dicyanobutane], the “Synergy Index” value in experiment [1] (DBDCB & AmBr, pH 5.5, end point 50% inhibition) was found to be 1.00; in experiment [1] (DBDCB & AmBr, pH 8.0, end point 50% inhibition) it was 1.00. Also, the “ppm DBDCB” value in experiment [1] (setting [3]) amounted to 2.70 ppm; in experiment [1] (setting [4]), 1.85 ppm.

Turning to `N#CC(Br)(Br)C(N)=O` [DBNPA, 2,2-Dibromo-3-nitrilopropionamide], the “Synergy Index” value in experiment [1] (setting [5]), in experiment [1] (setting [6]), in experiment [2] (setting [5]) and in experiment [2] (setting [6]) was 1.00 each time. For the same compound, the “ppm DBNPA” value in experiment [1] (setting [3]) is reported as 3.08 ppm; in experiment [1] (setting [4]), 2.86 ppm; in experiment [2] (setting [3]) it was 3.09 ppm; in experiment [2] (setting [4]) it was 2.33 ppm.

In the case of `CCCCCCCCn1sc(Cl)c(Cl)c1=O` [DCOI, 4,5-Dichloro-2-n-octyl-3(2H)-isothiazolinone], the “Synergy Index” value in experiment [1] (DCOI & AmBr, pH 5.5, end point 50% inhibition) stood at 1.00; in experiment [1] (DCOI & AmBr, pH 8.0, end point 50% inhibition), 1.00. The entries for the “ppm DCOI” value in experiment [1] (setting [3]) and in experiment [1] (setting [4]) were 0.39 ppm and 1.49 ppm, respectively.

As for `CCCCCCCCCCCCNC(=N)N.Cl` [DGH, N-Dodecylguanidine hydrochloride], the “Synergy Index” value in experiment [1] (DGH & AmBr, pH 5.5, end point 50% inhibition) is given as 1.00; in experiment [1] (DGH & AmBr, pH 8.0, end point 50% inhibition) it was 1.00. In addition, the “ppm DGH” value was found to be 3.11 ppm in experiment [1] (setting [3]) and 1.84 ppm in experiment [1] (setting [4]).

As for `CCCCCCCCCC[N+](C)(C)CCCCCCCCCC.[Cl-]` [DIDAC, Didecyl dimethyl ammonium chloride], the “Synergy Index” value in experiment [1] (DIDAC & AmBr, pH 5.5, end point 50% inhibition) came to 1.00; in experiment [1] (DIDAC & AmBr, pH 8.0, end point 50% inhibition) it was 1.00. Further, the “ppm DIDAC” value in experiment [1] (setting [3]) is 1.82 ppm; in experiment [1] (setting [4]) it was 1.62 ppm.

In the case of `O=c1ssc(Cl)c1Cl` [Dithiol, 4,5-Dichloro-1,2-dithiol-3-one], the “Synergy Index” value in experiment [1] (Dithiol & AmBr, pH 5.5, end point 50% inhibition) is on record as 1.00; in experiment [1] (Dithiol & AmBr, pH 8.0, end point 50% inhibition) it was 1.00. Also, the “ppm Dithiol” value was determined as 0.63 ppm in experiment [1] (setting [3]) and 0.84 ppm in experiment [1] (setting [4]).

Consider `O=CCCCC=O` [Glut, Glutaraldehyde], for which the “Synergy Index” value came to 1.00 in experiment [1] (Glut & AmBr, pH 5.5, end point 50% inhibition) and 1.00 in experiment [1] (Glut & AmBr, pH 8.0, end point 50% inhibition). For the same compound, the “ppm Glut” value was 2.06 ppm in experiment [1] (setting [3]) and 6.68 ppm in experiment [1] (setting [4]).

For `N#CSCSC#N` [MBT, Methylene bisthiocyanate], the “Synergy Index” value in experiment [1] (MBT & AmBr, pH 5.5, end point 50% inhibition) was 1.00; in experiment [1] (MBT & AmBr, pH 8.0, end point 50% inhibition) it was 1.00; in experiment [2] (MBT & AmBr, at 50% inhibition, pH 5.5), 1.00; in experiment [2] (MBTC & AmBr, at 50% inhibition, pH 8.0), 1.00. Also, the “ppm MBT” value amounted to 0.36 ppm in experiment [1] (setting [3]), 0.71 ppm in experiment [1] (setting [4]), 0.38 ppm in experiment [2] (setting [7]) and 0.73 ppm in experiment [2] (setting [8]).

For the compound `O=S(=O)(C(Cl)(Cl)Cl)C(Cl)(Cl)Cl` [Sulfone, bis(trichloromethyl)sulfone], the “Synergy Index” value in experiment [1] (setting [9]), in experiment [1] (setting [10]), in experiment [2] (setting [9]) and in experiment [2] (setting [10]) was 1.00 in each case. Further, the “ppm Sulfone” value in experiment [1] (setting [7]) worked out at 1.87 ppm; in experiment [1] (setting [8]) it was 8.42 ppm; in experiment [2] (setting [7]), 4.44 ppm; in experiment [2] (setting [8]) it was 10.25 ppm.
